{"source": "patent EP0029617A1", "about": "“Use of tertiary heterocyclic amines as synergists in pesticides; derivatives of cycloamines” (priority 1979, dated 1981)", "key": {"[1]": {"system": "Kornkäfer (sitophilus granarius L)", "experiment": "whole plant or invertebrate", "type": "in vivo", "conditions": "for % Wirkung Substanz +Ripcord / % Wirkung Substanz +Talcord: 180 min; for mortality at 100 µg/mL: amine 0,1 mg/ml (as for Pyrethroid : Amin 1 : 10); for Wirksamkeit in % Substanz +Ripcord: amine 1 mg/ml mixed 1 : 1 with Ripcord 0,01 mg/ml; for Wirksamkeit in % Substanz +Talcord: amine 1 mg/ml mixed 1 : 1 with Talcord 0,01 mg/ml", "procedure,_shortened": "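Acetone solutions (2 ml) were dried as films in 15 cm Petri dishes and 25 grain weevils added per dish, with a filter inserted after 1 h. Dead beetles were counted at 3 h at 19–21 °C, and % mortality and the synergistic factor were derived.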"}, "[2]": {"experiment": "Acute oral toxicity, single oral application, 14 day LD50", "parameters": "species or system SPF-Wistar-Ratten", "conditions": "rat, in vivo, read-out: 14 Tage LD50", "excerpt": "Die erfindungsgemäßen Verbindungen haben nur eine geringe Toxizität. Es wurde die akute, orale Toxizität von Phenyl-N-piperidino-essigsäure-ethylester und 1-N-Undecyl-piperidin bestimmt. Die Tests wurden mit SPF-Wistar-Ratten durchgeführt und die Wirkstoffe einmal oral appliziert."}, "Drosophila melanogaster": {"system": "Drosophila melanogaster", "experiment": "whole plant or invertebrate", "type": "in vivo", "conditions": "for Wirksamkeit in % Substanz +Dimeti-lan: 1 ml 0,05%ige amine solution + 1 ml 0,0001%ige Dimetilan solution; for Wirksamkeit in % Substanz +Dimethoat: 1 ml 0,05%ige amine solution + 1 ml 0,005 %ige Dimethoat solution (Dimethoat : amine 1 : 10)", "excerpt": "Die insektiziden Wirkungen von tertiären heterocyclischen Aminen und die synergistischen Eigenschaften mit dem Phosphorsäureester Dimethoat und dem Carbamat Dimetilan, getestet an Drosophila melanogaster.\nDie Versuche wurden in Petrischalen von 10 cm Durchmesser ausgeführt. Es wurden zunächst die gerade noch wirksamen Konzentrationen von Dimethoat und Dimetilan bestimmt. Für Dimethoat wurde 0,005 % und für Dimetilan 0,0001 % als günstige Versuchskonzentration ermittelt. Die Aminkomponente wurde mit 1 ml 0,05%iger Lösung + 1 ml Aceton auf insektizide Wirkung getestet. Zur Bestimmung des Synergismus wurde 1 ml 0,05%ige Aminlösung + 1 ml 0,005.%ige Dimethoatlösung, bzw. + 1 ml 0,0001%ige Dimetilanlösung pro Petrischale eingesetzt. Alle Verdünnungen wurden mit Aceton als Lösungsmittel hergestellt.\nIn den Petrischalen wurden die Lösungen am Boden gut verteilt und 30 min lang antrocknen lassen. In jede Petrischale wurden 20 mit Kohlendioxid betäubte Drosophila eingezählt. Alle 5 min, insgesamt 12 mal, wurde die Anzahl der toten Drosophila ausgezählt und notiert. Die Zahlen wurden aufsummiert und im Verhältnis zur möglichen Zahl an toten Drosophila in % angegeben, wobei der Tot aller Drosophila innerhalb der ersten 5 min 100 % Wirkung entspricht. Jeder Versuch wurde mit 3 Wiederholungen durchgeführt. In Tabelle 1 sind die Mittelwerte der Ergebnisse zusammengestellt.\nZur Ermittlung des synergistischen Faktors wurden die Einzelwerte pro Zeiteinheit durch die für Dimethoat, bzw. Dimetilan für die jeweilige Zeiteinheit gefundenen Werte dividiert. Die Werte für jede Zeiteinheit wurden summiert und durch die Anzahl der Zeiteinheiten dividiert. Die Versuche wurden bei sonst stets gleichbleibenden Bedingungen bei Temperaturen von 20 - 22°C ausgeführt. Die Kontrollversuche zeigten bei Versuchsabschluß stets 0 % Mortalität. Hat die Substanz selbst eine insektizide Wirkung, so wurden die Wirkungsfaktoren für Dimethoat und Dimetilan nach Abzug des Substanzwertes berechnet und in der Tabelle aufgeführt.\nIm Beispiel 1 war das Verhältnis von Insektizid und erfindungsgemäßem Amin 1 : 10 in den Gemischen mit Dimethoat. In der Tabelle 2 sind Verhältnisse von 1 : 1, 1 : 2 und 1 : 0,2 bei Versuchen mit Dimethoat aufgeführt, dabei wurde das Dimethoat immer in einer Konzentation von 0,005 % eingesetzt. Die Tabelle zeigt, daß auch bei diesen Verhältnissen noch eine gute synergistische Wirkung vorhanden ist, und es keineswegs einer großen überdosierung des Amins bedarf."}, "[3]": {"conditions": "Pyrethroid : Amin 1 : 5, amine 0,05 mg/ml"}, "[4]": {"conditions": "Pyrethroid : Amin 1 : 10, amine 0,1 mg/ml"}, "[5]": {"conditions": "Sitophilus granarius, 3 h, read-out: % Wirkung Substanz allein"}, "[6]": {"conditions": "Drosophila melanogaster, 1 ml 0,05%ige amine solution + 1 ml Aceton per dish, 20 flies, dead counted every 5 min, 12 times, mean values, read-out: Wirksamkeit in % Substanz allein"}, "[7]": {"conditions": "amine 0,05 % + Dimethoat 0,005 %, calculated after subtracting the amine's own effect"}, "[8]": {"conditions": "amine 1 mg/ml + Ripcord 0,01 mg/ml"}, "[9]": {"conditions": "1 ml 0,05%ige amine solution + 1 ml Aceton per dish, 20 flies, dead counted every 5 min, 12 times, mean values"}, "[10]": {"conditions": "amine 1 mg/ml + Talcord 0,01 mg/ml"}, "[11]": {"conditions": "amine 1 mg/ml in Aceton mixed 1 : 1 with Aceton, 2 ml per dish, 25 weevils, dead counted after 3 h"}}, "note": "Like-named read-outs stand apart in the source and are kept apart here."}
{"smiles": "CCCCCCCCCCCN1CCCCC1", "note": "[N-1-Undecyl-piperidin]", "values": [{"measurement": "% Wirkung Substanz +Ripcord", "setting": "[1]; [3]", "value": "90,8%"}, {"measurement": "% Wirkung Substanz +Talcord", "setting": "[1]; [3]", "value": "53,2%"}, {"measurement": "% Wirkung Substanz +Ripcord", "setting": "[1]; [4]", "value": "97,2%"}, {"measurement": "% Wirkung Substanz +Talcord", "setting": "[1]; [4]", "value": "60,0%"}, {"measurement": "mortality at 100 µg/mL", "setting": "[1]; [5]", "value": 0, "unit": "%"}, {"measurement": "mortality at 50 µg/mL", "setting": "[1]; Sitophilus granarius, 3 h, amine 0,05 mg/ml (as for Pyrethroid : Amin 1 : 5), read-out: % Wirkung Substanz allein", "value": 0, "unit": "%"}, {"measurement": "LD50 at 336 h", "setting": "[2]; männliche Ratten", "value": 593, "unit": "mg/kg"}, {"measurement": "LD50 at 336 h", "setting": "[2]; weibliche Ratten", "value": 493, "unit": "mg/kg"}]}
{"smiles": "CCCCCCCCCCCCCCN1CCOCC1", "note": "[N-1-Tetradecyl-morpholin]", "values": [{"measurement": "Wirksamkeit in % Substanz +Dimeti-lan", "setting": "Drosophila melanogaster", "value": "2,5%"}, {"measurement": "Wirksamkeit in % Substanz +Dimethoat", "setting": "Drosophila melanogaster", "value": "57,1%"}, {"measurement": "mortality at 0.05 %", "setting": "Drosophila melanogaster; [6]", "value": 0, "unit": "%"}, {"measurement": "Faktor der Wirkungssteigerung bei Dime-methoat", "setting": "Drosophila melanogaster; [7]", "value": "6,64"}, {"measurement": "mortality at 1000 µg/mL", "setting": "[1]; Sitophilus granarius, amine 1 mg/ml in Aceton mixed 1 : 1 with Aceton, 2 ml per dish, 25 weevils, dead counted after 3 h, read-out: Wirksamkeit in % Substanz allein", "value": 0, "unit": "%"}, {"measurement": "Synergistischer Faktor bei Ripcord", "setting": "[1]; [8]", "value": "2,03"}, {"measurement": "Wirksamkeit in % Substanz +Ripcord", "setting": "[1]; 3 h", "value": "64,0%"}, {"measurement": "Wirksamkeit in % Substanz +Talcord", "setting": "[1]; 3 h", "value": "5,2%"}]}
{"smiles": "CCOC(=O)C(c1ccccc1)N1CCCCC1", "note": "(stereo not shown) [Phenyl-N-piperidino-essigsäure-ethylester]", "values": [{"measurement": "Wirksamkeit in % Substanz +Dimeti-lan", "setting": "Drosophila melanogaster", "value": "2,7%"}, {"measurement": "Wirksamkeit in % Substanz +Dimethoat", "setting": "Drosophila melanogaster", "value": "22,2%"}, {"measurement": "mortality at 0.05 %", "setting": "Drosophila melanogaster; [6]", "value": 0, "unit": "%"}, {"measurement": "mortality at 0.01 %", "setting": "Drosophila melanogaster; Drosophila melanogaster, amine 0,01 %, read-out: Sub-stanz allein", "value": 0, "unit": "%"}, {"measurement": "mortality at 0.05 %", "setting": "Drosophila melanogaster; Drosophila melanogaster, amine 0,05 %, read-out: Sub-stanz allein", "value": 0, "unit": "%"}, {"measurement": "Substanz + Dime-thoat", "setting": "Drosophila melanogaster; amine 0,01 % + Dimethoat 0,005 %, Dimethoat : Amin 1 : 2", "value": "59,2%"}, {"measurement": "Faktor der Wirkungs-steigerung", "setting": "Drosophila melanogaster; amine 0,01 %, Dimethoat : Amin 1 : 2", "value": "6,88"}, {"measurement": "Substanz + Dime-thoat", "setting": "Drosophila melanogaster; amine 0,05 % + Dimethoat 0,005 %, Dimethoat : Amin 1 : 10", "value": "22,1%"}, {"measurement": "Faktor der Wirkungssteigerung bei Dime-methoat", "setting": "Drosophila melanogaster; [7]", "value": "2,57"}, {"measurement": "Faktor der Wirkungs-steigerung", "setting": "Drosophila melanogaster; amine 0,05 %, Dimethoat : Amin 1 : 10", "value": "2,57"}, {"measurement": "Synergistischer Faktor bei Ripcord", "setting": "[1]; Pyrethroid : Amin 1 : 10", "value": "3,14"}, {"measurement": "Synergistischer Faktor bei Talcord", "setting": "[1]; Pyrethroid : Amin 1 : 10", "value": "5,24"}, {"measurement": "% Wirkung Substanz +Ripcord", "setting": "[1]; [4]", "value": "98,8%"}, {"measurement": "% Wirkung Substanz +Talcord", "setting": "[1]; [4]", "value": "50,8%"}, {"measurement": "mortality at 100 µg/mL", "setting": "[1]; [5]", "value": 0, "unit": "%"}, {"measurement": "LD50 at 336 h", "setting": "[2]; männliche Ratten", "value": 9750, "unit": "mg/kg"}, {"measurement": "LD50 at 336 h", "setting": "[2]; weibliche Ratten", "value": 8170, "unit": "mg/kg"}]}
{"smiles": "CCCCOCCOCCOCCN1CCCC1", "note": "[N-(a-Butyl-triethylen-tri-ether-(w))-pyrrolidin]", "values": [{"measurement": "Wirksamkeit in % Substanz +Dimeti-lan", "setting": "Drosophila melanogaster", "value": "1,7%"}, {"measurement": "Wirksamkeit in % Substanz +Dimethoat", "setting": "Drosophila melanogaster", "value": "23,3%"}, {"measurement": "Wirksamkeit in % Substanz allein", "setting": "Drosophila melanogaster; [9]", "value": 0, "unit": "%"}, {"measurement": "Faktor der Wirkungssteigerung bei Dime-methoat", "setting": "Drosophila melanogaster; [7]", "value": "2,97"}, {"measurement": "Synergistischer Faktor bei Ripcord", "setting": "[1]; [8]", "value": "3,05"}, {"measurement": "Synergistischer Faktor bei Talcord", "setting": "[1]; [10]", "value": "1,24"}, {"measurement": "Wirksamkeit in % Substanz allein", "setting": "[1]; [11]", "value": 0, "unit": "%"}, {"measurement": "Wirksamkeit in % Substanz +Ripcord", "setting": "[1]; 3 h", "value": "96,0%"}, {"measurement": "Wirksamkeit in % Substanz +Talcord", "setting": "[1]; 3 h", "value": "13,2%"}]}
{"smiles": "C=CC(C)(CCC=C(C)C)N1CCOCC1", "note": "(stereo not shown) [N-1-Linalyl-morpholin]", "values": [{"measurement": "Wirksamkeit in % Substanz +Dimeti-lan", "setting": "Drosophila melanogaster", "value": "20,0%"}, {"measurement": "Wirksamkeit in % Substanz +Dimethoat", "setting": "Drosophila melanogaster", "value": "30,8%"}, {"measurement": "Wirksamkeit in % Substanz allein", "setting": "Drosophila melanogaster; [9]", "value": "11,7%"}, {"measurement": "Faktor der Wirkungssteigerung bei Dime-methoat", "setting": "Drosophila melanogaster; [7]", "value": "2,22"}, {"measurement": "Faktor der Wirkungssteigerung bei Dimi-tilan", "setting": "Drosophila melanogaster; amine 0,05 % + Dimetilan 0,0001 %, calculated after subtracting the amine's own effect", "value": "3,32"}, {"measurement": "Synergistischer Faktor bei Ripcord", "setting": "[1]; [8]", "value": "2,92"}, {"measurement": "Synergistischer Faktor bei Talcord", "setting": "[1]; [10]", "value": "3,42"}, {"measurement": "Wirksamkeit in % Substanz allein", "setting": "[1]; [11]", "value": 0, "unit": "%"}, {"measurement": "Wirksamkeit in % Substanz +Ripcord", "setting": "[1]; 3 h", "value": "92,0%"}, {"measurement": "Wirksamkeit in % Substanz +Talcord", "setting": "[1]; 3 h", "value": "33,2%"}]}
